Assays:
[1] = tested on: MES-SA/D×5 uterine sarcoma cells (doxorubicin-resistant, MDR); assay: Cytotoxicity assay, luminescence ATP detection, MES-SA/D×5; assay type: cell-based, human; settings: MES-SA/D×5 cells, three days incubation, ATP content; highest concentration 10^-5 M; read-out: ED50 (nM) MES-SA/D × 5
Method: (§1) The cytotoxicities of the new anthracyclines were tested in vitro with two cell lines: human uterine sarcomas MES-SA (CRL-1976; American Type Culture Collection (ATCC), Rockville, Md., USA) and MES-SA/D×5 (CRL-1977; ATCC, Rockville, Md., USA). MES-SA/D×5 has been developed by growing MES-SA cells in increasing concentrations of doxorubicin (Harker and Sikic, 1985).
(§2) Monolayer cultures were grown in McCoy's 5A medium with L-glutamine (Gibco BRL) supplemented with 10% FBS (Foetal Bovine Serum, Gibco BRL). No antibiotics were added. As the resistance is stable for at least 20 passages, the MES-SA/D×5 cells were grown without anthracycline selection (Harker and Sikic, 1985). Cells were maintained at 37° C. with 5% CO2 and subcultured every 3-5 days.
(§3) The cytotoxicity tests were performed in 96-well microtiter plates (sterile white plates with clear bottom, Corning Costar Corporation, Cambridge, Mass., USA). The anthracyclines were pipetted into the plates in 10 μl of ethanol, pure ethanol was used for control plates. Daunorubicin and aclarubicin were used as positive controls. When the ethanol had evaporated, the cells were seeded into the plates in 100 μl of appropriate medium. The number of cells seeded per well was 2500 with MES-SA, 3000 with MES-SA/D×5, 3000 with LL/2, 2000 with B16-F0 and B16-F1, 2000 with KLN-205 and 8000 with MLTC-1. The ATP content of the cells was measured after incubating the cells for three days at 37° C. with 5% CO2.
(§4) The growth medium was removed by turning the plates over, and 200 μl of ATP extraction reagent, Somalyze, were added to the wells. The plates were then incubated for 30 minutes at room temperature. The ATP measurement was performed with Luminoskan luminometer (Labsystems Oy, Helsinki, Finland) at 22° C. 20 μl of ATP monitoring reagent containing luciferin and luciferase was dispensed, and an integral measurement of 10 s with 2 s lag time was performed for each well. All reagents used were supplied by Bio-Orbit Oy, Turku, Finland.
(§5) The direct luminometer output (in relative light units, RLUS) was used to calculate the cytotoxic effect. This light signal is directly proportional to the amount of […] in a wide range (determined with Bio-Orbit ATP standard, data not shown). On the other hand, the amount of ATP is directly proportional to the amount of living cells (Kangas et al., 1984). The results are expressed as percentages of the control value of untreated cells. An IC50 value (the drug concentration resulting to an ATP signal of 50% of the untreated control signal) was graphically estimated from the % of control vs. drug concentration plot.

[2] = tested on: MES-SA human uterine sarcoma cells; assay: Cytotoxicity assay, luminescence ATP detection, MES-SA; assay type: cell-based; settings: three days incubation, ATP content, highest concentration 10^-5 M, read-out: ED50 (nM) MES-SA
Method: as §1, §2, §3, §4, §5

[3] = tested on: B16-F0 melanoma; assay: Cytotoxicity assay, ATP detection, B16-F0; assay type: cell-based, mouse; settings: B16-F0 cells in vitro; read-out: ED50 B16-F0
Method: as §3, §4, §5
(§6) H075-4a was also tested with several mouse cell lines in vitro (all were purchased from ATCC, Rockville, Md., USA): Lewis lung carcinoma (LL/2) (CRL-1642), B16-F0 melanoma (CRL-6322), B16-F1 melanoma (CRL-6323), KLN-205 lung squamous cell carcinoma (CRL-1453) and MLTC-1 leydig cell tumor (CRL-2065) using daunomycin, aclarubicin and H075-1a (MA 144U1) as references.
(§7) All cells grew as monolayers and were cultured at 37° C. with 5% CO2 according to ATCC standard instructions for each cell line: LL/2 in Dulbecco's modified Eagle's medium with 4.5 g/l glucose and 10% FCS, B16-F0 and B16-F1 in MEM (Eagle) in Earle's BSS with non-essential amino acids and 10% FCS, KLN-205 in MEM (Eagle) in Earle's BSS with non-essential amino acids and 10% FCS, MLTC-1 in RPMI 1640 with 25 mM HEPES and 10% FBS. All media were purchased from Gibco BRL, the serum was Gibco BRL Foetal Bovine Serum. […]

[4] = tested on: KLN-205 lung squamous cell carcinoma; assay: Cytotoxicity assay, ATP detection, KLN-205; assay type: cell-based, mouse; settings: KLN-205 cells in vitro; read-out: ED50 KLN-205
Method: as §3, §4, §5, §6, §7

[5] = tested on: MLTC-1 leydig cell tumor; assay: Cytotoxicity assay, ATP detection, MLTC-1; assay type: cell-based, mouse; settings: MLTC-1 cells in vitro; read-out: ED50 MLTC-1
Method: as §3, §4, §5, §6, §7

[6] = tested on: Lewis lung carcinoma (LL/2); assay: Cytotoxicity assay, ATP detection, LL/2; assay type: cell-based, mouse; settings: LL/2 cells in vitro; read-out: ED50 LL/2
Method: as §3, §4, §5, §6, §7

[7] = tested on: B16-F1 melanoma; assay: Cytotoxicity assay, ATP detection, B16-F1; assay type: cell-based, mouse; settings: B16-F1 cells in vitro; read-out: ED50 B16-F1
Method: as §3, §4, §5, §6, §7

[8] = tested on: SK-N-MC; assay: Cytotoxicity assay, ATP detection, SK-N-MC; assay type: cell-based; settings: SK-N-MC cells in vitro; read-out: ED50 SK-N-MC
[9] = tested on: P388 leukemia; assay: Cytotoxic activity in vivo: P388 leukemia model; design: species or system mice; settings: 10^6 P388 cells i.p. day 0
Excerpt: P388 leukemia was maintained by serial intraperitoneal (i.p.) transplantations in DBA/2JBom female mice purchased from M & B A/S, Ry, Denmark. The animals were maintained at the facilities of Central Animal Laboratory, University of Turku. The management of the animal unit is based on and followed the guidelines: “European Convention for the protection of Vertebrate Animals used for Experimental and other Scientific Purposes, European Treaty Series No. 123 (EU No. 609/86), Official Journal of European Communities No. L 358, Strasbourg Nov. 24, 1986”, and “The Statute No. 1360/90 of the Finnish Law, Helsinki Dec. 21, 1990: Asetus kokeellisiin ja muihin tieteellisiin tarkoituksiin käytettävien selkärankaisten eläinten suojelemiseksi tehdyn eurooppalaisen yleissopimuksen voimaansaattamisesta. Suomen s{umlaut over (aa)}doskokoelma.”
The in vivo tests were started by injecting 10^6 P388 cells suspended in Dulbecco's phosphate buffered saline i.p. in mice on day 0. Groups of 3 mice were used. The drugs were administered i.p. on day 1 on the basis of individual body weight. The control group received vehicle (10% ethanol in Dulbecco's phosphate buffered saline).

SMILES	EC50 [1]	EC50 [2]	also measured
CCC1(O)CC(OC2CC(O)C(OC3CC(O)C(OC4CC(O)C(O)C(C)O4)C(C)O3)C(C)O2)c2c(cc3c(c2O)C(=O)c2c(O)cccc2C3=O)C1O (stereo not drawn) [Compound H075-2d]	> 10000 nM	> 10000 nM	
CC1OC(OC2CC(C)(O)C(O)c3cc4c(c(O)c32)C(=O)c2c(O)cccc2C4=O)CC(N(C)C)C1O (stereo not drawn) [Compound H075-6c]	> 10000 nM	4200 nM	
COC(=O)C1c2cc3c(c(O)c2C(OC2CC(O)C(OC4CC(O)C(OC5CC(O)C(O)C(C)O5)C(C)O4)C(C)O2)CC1(C)O)C(=O)c1c(O)cccc1C3=O (stereo not drawn) [Compound H075-3d]	> 10000 nM	> 10000 nM	
COC(=O)C1c2c(O)c3c(c(O)c2C(OC2CC(O)C(OC4CC(O)C(O)C(C)O4)C(C)O2)CC1(C)O)C(=O)c1c(O)cccc1C3=O (stereo not drawn) [Compound H075-5e]	> 10000 nM	5200 nM	
CCC1(O)CC(OC2CC(N(C)C)C(OC3CC(O)C(OC4CC(O)C(O)C(C)O4)C(C)O3)C(C)O2)c2c(cc3c(c2O)C(=O)c2c(O)cccc2C3=O)C1C(=O)OC (stereo not drawn) [Akv-Rhn-dF-dF, aklavinone-rhodosamine-2-deoxyfucose-2-deoxyfucose]	540 nM	6 nM	EC50 [3]: 14 nM; EC50 [4]: 90 nM; EC50 [5]: 600 nM; EC50 [6]: 38 nM; EC50 [7]: 12 nM; EC50 [8]: 30 nM
CCC1(O)Cc2cc3c(c(O)c2C(OC2CC(N(C)C)C(OC4CC(O)C(OC5CC(O)C(O)C(C)O5)C(C)O4)C(C)O2)C1)C(=O)c1c(O)cccc1C3=O (stereo not drawn) [Compound H075-8a]	> 10000 nM	130 nM	
CCC1(O)CC(OC2CC(N(C)C)C(OC3CC(O)C(OC4CC(O)C(O)C(C)O4)C(C)O3)C(C)O2)c2c(cc3c(c2O)C(=O)c2c(O)cccc2C3=O)C1O (stereo not drawn) [Compound H075-2a]	> 10000 nM	3200 nM	
CC1OC(OC2C(C)OC(OC3CC(C)(O)C(O)c4c(O)c5c(c(O)c43)C(=O)c3c(O)cccc3C5=O)CC2N(C)C)CC(O)C1O (stereo not drawn) [Compound H075-11b]	3500 nM	60 nM	Median survival days (range) ([9]; 4 mg/kg i.p. on day 1): 13 (12-13) days; Median survival days (range) ([9]; 8 mg/kg i.p. on day 1): 14 (13-15) days; Median survival days (range) ([9]; 16 mg/kg i.p. on day 1): 16 (15-19) days
CC1OC(OC2C(O)CC(OC3CC(C)(O)C(O)c4c(O)c5c(c(O)c43)C(=O)c3c(O)cccc3C5=O)OC2C)CC(O)C1O (stereo not drawn) [Compound H075-11e]	> 10000 nM	800 nM	
CCC1(O)CC(OC2CC(N(C)C)C(OC3CC(O)C(O)C(C)O3)C(C)O2)c2c(cc3c(c2O)C(=O)c2c(O)cccc2C3=O)C1O (stereo not drawn) [Compound H075-2b]	> 10000 nM	400 nM	
CC1OC(OC2C(C)OC(OC3CC(C)(O)C(O)c4cc5c(c(O)c43)C(=O)c3c(O)cccc3C5=O)CC2N(C)C)CC(O)C1O (stereo not drawn) [Compound H075-6b]	> 10000 nM	200 nM	
CCC1(O)CC(OC2CC(N(C)C)C(OC3CC(O)C(OC4CC(O)C(O)C(C)O4)C(C)O3)C(C)O2)c2c(O)c3c(c(O)c2C1O)C(=O)c1cccc(O)c1C3=O (stereo not drawn) [Compound H075-10a]	1300 nM	30 nM	Median survival days (range) ([9]; 4 mg/kg i.p. on day 1): 15 (14-17) days; Median survival days (range) ([9]; 8 mg/kg i.p. on day 1): 14 (13-15) days; Median survival days (range) ([9]; 16 mg/kg i.p. on day 1): 14 (14-15) days

Source: patent publication US6399583B1, “Hybrid anthracyclines from genetically engineered streptomyces galilaeus strains, process for production and uses thereof” (Galilaeus Oy, priority 1998, dated 2002)
